# Results reported in paper PMC6980506, “Comparative pharmacokinetics and pharmacodynamics of the advanced Retinol-Binding Protein 4 antagonist in dog and cynomolgus monkey” (PLoS ONE, 2020).
# Like-named read-outs stand apart in the source and are kept apart here.
# Assay: Single dose pharmacokinetic study in beagle dog
# Format: in vivo
# Conditions: male, beagle, plasma; for concentration at 8 h / concentration at 12 h / concentration at 24 h / concentration at 36 h / concentration at 48 h / concentration at 0.25 h / concentration at 0.5 h / concentration at 1 h / concentration at 2 h / concentration at 4 h / concentration at 10 h: male beagle dog; for half-life: read-out: T1/2, apparent terminal half-life (converted)
# Method: Pharmacokinetic studies were conducted in male beagle dogs and male cynomolgus monkeys at SRI International, Menlo Park, CA. General procedures for animal care and housing were in accordance with the National Research Council (NRC) Guide for the Care and Use of Laboratory Animals (1996) and the Animal Welfare Standards incorporated in 9 CFR Part 3, 1991 and complied with guidelines set forth by the ARVO Animal Statement for the Use of Animals in Ophthalmic and Vision Research. During the course of the PK experiments, cynomolgus monkeys were individually housed in stainless steel primary enclosures in an AAALAC-accredited facility. Animals were fed a commercial monkey chow, and supplemental food was provided (fresh fruits, vegetables, seeds, and nuts). Reverse osmosis-purified drinking water was available at all times. Cynomolgus monkeys were maintained on a 12:12 hour light:dark cycle at the 64–84°F temperature and 30–70% humidity. Monkeys had access to enrichment opportunities (grooming devices, foraging devices, activity panels and mirrors) and were provided auditory stimuli and human interaction enrichment throughout the study. Blood samples were collected by venipuncture of a peripheral vein. Animals were acclimated to the squeeze back mechanism in their home cage by repeated, short periods of restraint during general husbandry procedures for at least 2 weeks prior to dosing. Animal were not removed from their cages for collection, and no anesthesia/analgesic agents were used for blood collection. […] For PK experiments, beagle dogs were individually housed in enclosed run (≥ 4 ft x 6 ft). Dogs were exposed to their daily ration of food, Harlan Teklad 2025C Certified Global 25% Protein Dog Diet. Water was provided from the public water supply (municipal tap water) ad libitum. Dogs were maintained on a 12:12 hour light:dark cycle at the 72–73°F temperature and 40–71% humidity. Every effort was made to minimize, if not eliminate, pain and suffering in all animals in this study. No restraining devices were used in blood collecting procedures. Dogs were gentle hand-held to restrain by trained technicians with the dogs foreleg extended for sample collection of blood from cephalic vein. Animals were awake during blood sample collection with no anesthesia/analgesic agents used, and positive reinforcement by the technician was provided following collection. […] All dogs were released back to the colony after the study was completed. Male beagle dogs and male cynomolgus monkey received a single i.v. dose of a test compound at 0.5 mg kg^−1 (dog) and 1 mg kg^−1 (monkey) or a single p.o. dose of a test compound of at 2 mg kg^−1 (dog) and 5 mg kg^−1 (monkey). The number of animals that was used in PK experiments is 3 per study group. Intravenous administration vehicle was 3% DMA/45% PEG300/12% ethanol/40% sterile water; p.o. vehicle was 2% Tween 80 in 0.9% saline. […] Blood samples were processed to plasma. Following protein extraction with acetonitrile, compound concentrations in plasma were measured by LC-MS/MS. The plasma drug level data were analyzed using WinNonlin software package; Model 201 (for i.v. bolus administration);was used for the analysis of i.v. data, and Model 200 (for extravascular administration) was used for the analysis of the p.o. data. Aliquots of pre-dose plasma samples, as well as aliquots of plasma PK samples, were used for the analysis of the plasmabiomarker, RBP4.
# [1] = dog, iv, 0.5 mg/kg, iv 0.5 mg/kg, read-out: Plasma level, Individual animals
# [2] = dog, iv, 0.5 mg/kg, iv 0.5 mg/kg, read-out: Plasma level, Mean
# [3] = dog, po, 2 mg/kg, po 2 mg/kg, read-out: Plasma level, Individual animals
# [4] = dog, po, 2 mg/kg, po 2 mg/kg, read-out: Plasma level, Mean
# [5] = iv, Dog, 0.5 mg kg^−1 i.v., mean ± SD, n=3
# [6] = po, Dog, 2.0 mg kg^−1 p.o., mean ± SD, n=3
smiles,measurement,setting,value
Cc1cc(C(=O)O)nc(N2C[C@H]3C[C@@H](c4ccccc4C(F)(F)F)C[C@H]3C2)n1 [BPN-14136],concentration at 8 h,[1],217 ng/mL
same,concentration at 8 h,[2],209 ng/mL
same,concentration at 12 h,[2],107 ng/mL
same,concentration at 24 h,[1],169 ng/mL
same,concentration at 24 h,[2],175 ng/mL
same,concentration at 36 h,[1],33.3 ng/mL
same,concentration at 36 h,[2],41 ng/mL
same,concentration at 48 h,[1],92.8 ng/mL
same,concentration at 48 h,[2],95.9 ng/mL
same,bioavailability,"dog, oral, 2 mg kg^−1, Dog, 2.0 mg kg^−1 p.o. vs 0.5 mg kg^−1 i.v., read-out: %F, bioavailability",~84%
same,concentration at 0.25 h,[3],7100 ng/mL
same,concentration at 0.25 h,[4],7090 ng/mL
same,concentration at 0.5 h,[3],6340 ng/mL
same,concentration at 0.5 h,[4],6720 ng/mL
same,concentration at 1 h,[3],6630 ng/mL
same,concentration at 1 h,[4],5940 ng/mL
same,concentration at 2 h,[3],3600 ng/mL
same,concentration at 2 h,[4],4120 ng/mL
same,concentration at 4 h,[3],1790 ng/mL
same,concentration at 4 h,[4],2140 ng/mL
same,concentration at 8 h,[3],855 ng/mL
same,concentration at 8 h,[4],904 ng/mL
same,concentration at 10 h,[3],407 ng/mL
same,concentration at 10 h,[4],559 ng/mL
same,concentration at 12 h,[3],453 ng/mL
same,concentration at 12 h,[4],532 ng/mL
same,concentration at 24 h,[3],330 ng/mL
same,concentration at 24 h,[4],383 ng/mL
same,concentration at 36 h,[3],82.4 ng/mL
same,concentration at 36 h,[4],94.2 ng/mL
same,concentration at 48 h,[4],126 ng/mL
same,AUC(0-inf),[5],10700 ± 500 ng·h/mL
same,AUC(0-t),[5],10300 ± 500 ng·h/mL
same,clearance,"iv, Dog, 0.5 mg kg^−1 i.v., mean ± SD, n=3, read-out: CL, total body clearance (converted)",0.783 mL/min/kg
same,Cmax,"iv, Dog, 0.5 mg kg^−1 i.v., mean ± SD, n=3, read-out: Cmax, maximum observed concentration at first time point",2700 ± 100 ng/mL
same,half-life,[5],2.6 ± 0.2 h
same,Vd,"iv, Dog, 0.5 mg kg^−1 i.v., mean ± SD, n=3, read-out: Vss, volume of distribution at steady state",0.622 ± 0.0034 L/kg
same,AUC(0-inf),[6],35900 ± 4400 ng·h/mL
same,AUC(0-t),[6],35400 ± 400 ng·h/mL
same,Tmax,[6],0.33 ± 0.14 h
same,Cmax,"po, Dog, 2.0 mg kg^−1 p.o., mean ± SD, n=3, read-out: Cmax",7500 ± 200 ng/mL
same,half-life,[6],2.9 ± 0.4 h
